Data as given in patent US5238953A, “N-imidazolyl derivatives of substituted tetrahydrocarbazole and cyclohept (B) indole” (Farmitalia Carlo Erba S.R.L., priority 1991, dated 1993).
Where two headings read alike, the source gives them in different places.

Key:
TxB2 synthesis = TxB2 synthesis inhibition in vitro in whole blood of normal rats; assay type: cell-based, normal Sprague Dawley rats; details: Rattus norvegicus, read-out: In vitro effect on TxB2 synthesis in normal rats, IC50 (whole blood)
Experimental: (§1) The effects of a representative group of compounds of the invention were evaluated, in comparison with known compounds, on TxB2 synthesis inhibition in vitro in whole blood of normal rats, and on TxA2 antagonism in a binding assay in washed human platelets.
TxB2 Synthesis Inhibition
Blood was withdrawn from the abdominal aorta of normal Sprague Dawley rats (Charles River Italy) under light ether anaesthesia. The blood was immediately divided in portions of 0.5 ml and distributed in glass tubes each containing a concentration of the test compound, or of the reference compounds.
Samples were then allowed to clot for 1 hour at 37° C., centrifuged at 3000 rpm for 10 min, and serum collected and stored at -20° C. until assayed.

TXA2 receptor = target: T1, TXA2 receptor (Homo sapiens, UniProt P21731); assay: Displacement of [^3 H]-SQ 29.548 binding to washed human platelets (TxA2 antagonism); details: for affinity for the receptor: in words, compared with BM 13505 and BM 13177, binding test (washed human platelets); for IC50: washed human platelets, [^3 H]-SQ 29,548 5 nM, 30 min at 25° C., read-out: ^3 H SQ 29548 binding displacement (washed human platelet) IC50
T1 construct: endogenous in cells; host or cells: washed human platelets from blood of healthy volunteers
T1 sequence (P21731 1-343): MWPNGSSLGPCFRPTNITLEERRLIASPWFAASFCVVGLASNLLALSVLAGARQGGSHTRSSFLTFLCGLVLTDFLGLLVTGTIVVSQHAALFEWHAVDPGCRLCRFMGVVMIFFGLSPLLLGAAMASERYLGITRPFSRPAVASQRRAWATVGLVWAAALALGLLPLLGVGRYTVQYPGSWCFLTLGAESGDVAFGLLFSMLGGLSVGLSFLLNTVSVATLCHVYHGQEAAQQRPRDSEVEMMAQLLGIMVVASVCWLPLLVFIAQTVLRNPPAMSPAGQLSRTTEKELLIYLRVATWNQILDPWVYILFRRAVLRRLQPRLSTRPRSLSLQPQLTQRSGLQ
Experimental: as §1
Displacement of [^3 H]-SQ 29.548 binding to washed human platelets
Blood from healthy volunteers of both sexes who had not taken any medication for at least 10 days was collected into one-tenth volume of acid citrate dextrose containing indomethacin (28 μM). Platelet rich plasma (PRP), obtained by centrifugation of the blood at 200×g for 20 min, was washed twice (1000×g for 10 min). The platelets are then resuspended in Tyrode-Hepes buffer (pH 7.4) to a final concentration of […] and incubated for 0-60 min at 25° with [^3 H]-SQ 29,548 (5 nM). For displacement experiments various concentrations (10^-9 -10^-4 M) of competing ligands were added and incubated for 30 min at 25° C. […] After the incubation, 4 ml of ice-cold TRIS-HCl buffer (10 mM, pH 7.4) was added to each tube and the reaction mixture was immediately filtered by suction through a Whatman GF/C glass filter disc which was washed 2 times with ice-cold TRIS-HCl (4 ml) and counted for radioactivity by a Packard β-counter.
The binding data were analysed by computerized non-linear curve fitting using the Ligand program and expressed as IC50.

[1] = whole blood of normal rats, clotted 1 hour at 37° C.

SMILES	IC50 (TxB2 synthesis; 1 h) [nM]	IC50 (TxB2 synthesis; [1]) [nM]	affinity for the receptor (TXA2 receptor)	IC50 (TXA2 receptor) [nM]
CC(=O)Oc1ccccc1C(=O)O [ASA, acetylsalicilic acid]	31000	–	–	–
O=C(O)c1ccc(OCCn2ccnc2)cc1 [Dazoxiben]	–	1200	–	–
O=C(O)CC1CCCc2c1n(Cc1ccc(-n3ccnc3)cc1)c1ccc(F)cc21 (stereo not shown) [FCE 26643, 6-Fluoro-9-[[4-(1H-imidazol-1-yl)phenyl]methyl]-1,2,3,4-tetrahydrocarbazol-1-yl-acetic acid]	–	–	affinity for the receptor greater than those of compounds BM 13505 and BM 13177	6.6
O=C(O)CC1CCCc2c(n(Cc3ccc(-n4ccnc4)cc3)c3ccc(F)cc23)C1 (stereo not shown) [FCE 27041, 2-Fluoro-5-[[4-(1H-imidazol-1-yl)phenyl]methyl]-5,6,7,8,9,10-hexahydrocyclohept[b]indole-7-acetic acid]	–	198	affinity for the receptor greater than those of compounds BM 13505 and BM 13177	6
